Measured values as given in patent US11333660B2, “Analytical process for predicting the therapeutic effect of BH3 mimetics” (MEDIZINISCHE HOCHSCHULE HANNOVER, priority 2017, dated 2022).

What was measured:
[1] = test system: PBMC; assay: analytical process: TMRE fluorescence by FACS on PBMC aliquots (FIG. 1b); type: cell-based
Procedure: In this analysis incubation of PBMC aliquots in cell culture medium with the pharmaceutical compound, negative control or positive control was for 30 min, incubation after subsequent addition of fluorescent dye TMRE was for 10 min, both at 37° C., 5% CO2 atmosphere as cell culture conditions.

[2] = test system: PBMC from a CLL patient; assay: TMRE FACS on PBMC from a CLL patient; type: cell-based, human; details: 3 h, ABT-199 1 μM, FCCP 5 μM, mock MFI 121
Procedure: (§1) PBMC were isolated by density gradient centrifugation using Biocoll from the heparinized blood sample of a patient diagnosed to have CLL (ABT-199, Venetoclax, is approved for treatment of CLL with 17p-deletion). As a comparison, PBMC from a healthy donor were isolated. PBMC were suspended in RPMI1640 cell culture medium and transferred as aliquots into separate tubes, to which ABT-199 was added to a final concentration of 1 μM and incubated at 37° C. for 3 h in a 5% CO2 atmosphere. Subsequently, TMRE was added to 50 nM and aliquots were further incubated for 30 min, then analysed by FACS according to the invention. As a negative control (mock), physiological saline was added, as a positive control FCCP to 5 μM (FCCP).

[3] = test system: PBMC from a healthy donor; assay: TMRE FACS on PBMC from a healthy donor; type: cell-based, human; details: 3 h, ABT-199 1 μM, FCCP 5 μM, mock MFI 232
Procedure: as §1

[4] = test system: CD19+ lymphoma cells in PBMC of a mantle-cell lymphoma patient; assay: TMRE FACS on live CD19+ cells of PBMC from a mantle-cell lymphoma patient; type: cell-based, human; details: 3 h; for % (MeanFL relative to negative control) / MeanFL (mean TMRE fluorescence for the live CD19+ cells): CD19 gate, BH3 mimetics 1000 nM; for effect of inducing MOMP (reduced TMRE fluorescence in CD19+ cells): 1 μM, FIG. 7
Procedure: From a blood sample that was drawn from a patient diagnosed to have mantle-cell lymphoma, PBMC were isolated by density gradient centrifugation and suspended in cell culture medium. No further separation of cells was done but all the PBMC were contained in each aliquot dispensed from the isolated PBMC. […] For measurement, TMRE was added for measuring mitochondrial membrane potential, and for discriminating CD19+ lymphoma cells from normal CD19− cells, anti-CD19 antibody, APC-labelled, was added.
Measurement was by FACS after 3 h incubation under cell culture conditions subsequent to addition of the compounds to the aliquots of the cells.
The FACS results shown in FIG. 7 were taken in one measurement for each aliquot. […] This gating was applied to the measurement of the dye of the anti-CD19 antibody (CD19 APC) as shown in the center column (b, e, h, k, n, q) (R2). The measurement results for the viable lymphoma CD19+ cells in relation to MOMP are shown in the right hand column (c, f, i, l, o, r), with TMRE fluorescence indicating MOMP, i.e. lower TMRE fluorescence indicating increased MOMP.

[5] = test system: human CD45+ cells (BV173) from spleen of untreated control mouse; assay: TMRE FACS on human CD45+ spleen cells from the control mouse; type: cell-based; details: for TMRE fluorescence relative to 100% at beginning: FCCP 5 μM 15 min; for TMRE fluorescence / MOMP (FIG. 10): control mouse CD45+ cells, 1 μM, 1 h
Procedure: (§2) Cells were concurrently immunologically stained with APC-labelled anti-human CD45 antibody, to discriminate human leukemic from murine cells, and with TMRE. Measurement was by FACS, with gating for live human cells.
[…] Concurrently, the cells were immunologically stained by adding a APC-labelled anti-human CD45 antibody to identify the tumour cells, and by adding TMRE. After 1 h, cells were analysed by FACS, with the gating set according to side scatter and forward scatter to select for live cells, and to select for CD45+ cells showing TMRE fluorescence.

[6] = test system: human CD45+ cells (BV173) from spleen of ABT-199/DEX/DAS treated mouse; assay: TMRE FACS on human CD45+ spleen cells from the ABT-199/DEX/DAS treated mouse; type: cell-based; details: for TMRE fluorescence relative to 100% at beginning: ABT-199/DEX/DAS treated mouse spleen CD45+ cells, ABT-199 10 μM 1 h, FCCP 5 μM 15 min; for TMRE fluorescence / MOMP (FIG. 10): ABT-199/DEX/DAS treated mouse CD45+ cells, 1 μM, 1 h
Procedure: as §2
One of these BH3 mimetics was added to a separate aliquot of the cells suspended in cell culture medium to a final concentration of 1 μM. Concurrently, the cells were immunologically stained by adding a APC-labelled anti-human CD45 antibody to identify the tumour cells, and by adding TMRE. After 1 h, cells were analysed by FACS, with the gating set according to side scatter and forward scatter to select for live cells, and to select for CD45+ cells showing TMRE fluorescence.

[7] = test system: in vitro cultivated BV173 cells; assay: TMRE FACS on in vitro cultivated BV173 cells; type: cell-based, human; details: in vitro cultured BV173, ABT-199 10 μM 1 h; for TMRE fluorescence relative to 100% at beginning: FCCP 5 μM 15 min
[8] = test system: B-ALL cell line SUP-B15 (BCR-ABL-positive); assay: TMRE FACS measurement of MOMP in SUP-B15 cells; type: cell-based; details: 3 h
Procedure: As representatives for isolated PBMC, BM or LN mononuclear cells, the B-ALL cell lines SUP-B15, which expresses BCR-ABL (BCR-ABL-positive), and the BCR-ABL negative REH were used in the analytical process in suspension in cell culture medium RPMI1640. […] After incubation at 37° C. for 3 h, TMRE was added to a final concentration of 50 nM and the aliquots were incubated for further 15 min at 37° C., in a 5% CO2 atmosphere each time.
(§3) As a positive control, FCCP was added to one aliquot of the cell suspension to 5 μM final concentration. TMRE fluorescence was measured by FACS after 30 min incubation after addition of TMRE.

[9] = test system: BCR-ABL negative REH cells; assay: TMRE FACS measurement of MOMP in REH cells; type: cell-based; details: ABT-199 10 nM, 3 h
Procedure: As representatives for isolated PBMC, BM or LN mononuclear cells, the B-ALL cell lines SUP-B15, which expresses BCR-ABL (BCR-ABL-positive), and the BCR-ABL negative REH were used in the analytical process in suspension in cell culture medium RPMI1640. As a positive control for MOMP, FCCP was added to 5 μM to one aliquot, as a negative control an aliquot of the suspended cells was used with addition of the same volume of physiological saline, and ABT-199 was added to 10 nM final concentration. After incubation at 37° C. for 3 h, TMRE was added to a final concentration of 50 nM and the aliquots were incubated for further 15 min at 37° C., in a 5% CO2 atmosphere each time.

[10] = test system: PBMC or BM mononuclear cells from ALL patients; assay: TMRE FACS on PBMC or BM cells from ALL patients; type: cell-based, human; details: ABT-199 1 μM, 3 h, ALL samples (n=12)
Procedure: (§4) PBMC or BM mononuclear cells were isolated by density gradient centrifugation from blood or bone marrow samples originating from patients who were newly diagnosed as ALL (n=12), from blood or bone marrow samples originating from CML patients in chronic phase (CML-CP, n=7), and from blood samples obtained from healthy volunteers (n=6). In accordance with the analytical process, PBMC or BM cells were incubated in cell culture medium with ABT-199 added to 1 μM for 3 h at 37° C. in a 5% CO2 atmosphere for cell culture conditions, followed by addition of TMRE to 50 nM and incubation for another 30 min, then analysed by FACS for fluorescence by TMRE.

[11] = test system: PBMC or BM mononuclear cells from CML patients in chronic phase; assay: TMRE FACS on PBMC or BM cells from CML-CP patients; type: cell-based, human; details: ABT-199 1 μM, 3 h, CML-CP samples (n=7)
Procedure: as §4

[12] = test system: PBMC from healthy donors; assay: TMRE FACS on PBMC from healthy volunteers; type: cell-based, human; details: ABT-199 1 μM, 3 h, healthy donors (n=6)
Procedure: as §4

[13] = test system: SUP-B15 cells; assay: propidium iodide (PI) staining of SUP-B15 cells; type: cell-based; details: 1 μM, 24 h process
Procedure: as §3
For comparison, apoptosis was measured by propidium iodide (PI) staining, the entire process having a duration of 24 h.

[14] = test system: blood cells obtained from a CLL patient; details: 6 h after contact in vitro; cited from earlier work
[15] = CD19+ cells, BH3 mimetics 1 μM, FCCP 5 μM, in comparison to the negative control
[16] = control mouse spleen CD45+ cells, ABT-199 10 μM 1 h

N#CC(C#N)=NNc1ccc(OC(F)(F)F)cc1 [FCCP, carbonyl cyanide-4-(trifluoro-methoxy)phenylhydrazone]
mean fluorescence intensity (MFI) of TMRE ([1]; incubation 30 min, TMRE 10 min, 37° C., negative control MFI 612): 95
MFI (TMRE) [2]: 60
MFI (TMRE) [3]: 106
mean TMRE fluorescence relative to negative control [4, 15]: 15.6%
% (MeanFL relative to negative control) ([4]; FCCP 5 μM): 15.6%
MeanFL (mean TMRE fluorescence for the live CD19+ cells) ([4]; FCCP 5 μM): 109
TMRE fluorescence relative to 100% at beginning [5, 16]: ~20%
TMRE fluorescence relative to 100% at beginning [6]: ~20%
TMRE fluorescence relative to 100% at beginning [7]: ~20%

CC1(C)CCC(CN2CCN(c3ccc(C(=O)NS(=O)(=O)c4ccc(NCC5CCOCC5)c([N+](=O)[O-])c4)c(Oc4cnc5[nH]ccc5c4)c3)CC2)=C(c2ccc(Cl)cc2)C1 [ABT-199]
FACS peak distribution of TMRE fluorescence ([1]; ABT-199 5 μM to 10 μM, 30 min incubation): the peak at the position of the positive control increasing with the concentration
induction of apoptosis by the process of the invention (TMRE) ([8]; 1 μM): significant induction of apoptosis
reduction of MFI (TMRE) ([8]; ABT-199 10 nM, versus negative control): approx. 40%
MFI (TMRE) in comparison to the negative control [9]: essentially remains unaffected
MFI (TMRE) [2]: 53
MFI (TMRE) [3]: 242
induction of apoptosis (TMRE FACS) [10]: strong induction of apoptosis
induction of apoptosis (TMRE FACS) [11]: essentially no induction of apoptosis
induction of apoptosis (TMRE FACS) [12]: essentially no induction of apoptosis
induction of apoptosis by PI staining [13]: significant induction of apoptosis
effect of inducing MOMP (reduced TMRE fluorescence in CD19+ cells) [4]: effective in inducing MOMP
mean TMRE fluorescence relative to negative control [4, 15]: 9.3%
% (MeanFL relative to negative control) ([4]; FCCP 5 μM): 9.3%
MeanFL (mean TMRE fluorescence for the live CD19+ cells) ([4]; FCCP 5 μM): 65
proportion of cells with MOMP [5, 16]: 40%
TMRE fluorescence relative to 100% at beginning [5, 16]: approx. 60%
TMRE fluorescence relative to 100% at beginning [6]: no response
proportion of cells with MOMP [7]: 40%
TMRE fluorescence relative to 100% at beginning [7]: approx. 60%

Cc1c(-c2ccc(N3CCc4cccc(C(=O)Nc5nc6ccccc6s5)c4C3)nc2C(=O)O)cnn1CC12CC3CC(CC(C3)C1)C2 [A1331852]
effect of inducing MOMP (reduced TMRE fluorescence in CD19+ cells) [4]: less pronounced effect
mean TMRE fluorescence relative to negative control [4, 15]: 29.1%
% (MeanFL relative to negative control) ([4]; FCCP 5 μM): 29.1%
MeanFL (mean TMRE fluorescence for the live CD19+ cells) ([4]; FCCP 5 μM): 203
TMRE fluorescence / MOMP (FIG. 10) [5]: strongly reduced TMRE fluorescence
TMRE fluorescence / MOMP (FIG. 10) [6]: strongly reduced TMRE fluorescence

CN(C)CC[C@H](CSc1ccccc1)Nc1ccc(S(=O)(=O)NC(=O)c2ccc(N3CCN(Cc4ccccc4-c4ccc(Cl)cc4)CC3)cc2)cc1[N+](=O)[O-] [ABT-737]
effect of inducing MOMP (reduced TMRE fluorescence in CD19+ cells) [4]: effective in inducing MOMP
mean TMRE fluorescence relative to negative control [4, 15]: 9.9%
% (MeanFL relative to negative control) ([4]; FCCP 5 μM): 9.9%
MeanFL (mean TMRE fluorescence for the live CD19+ cells) ([4]; FCCP 5 μM): 69
TMRE fluorescence / MOMP (FIG. 10) [5]: reduced TMRE fluorescence
TMRE fluorescence / MOMP (FIG. 10) [6]: reduced TMRE fluorescence

Cc1c(-c2c(-c3ccc(F)o3)sc3ncnc(O[C@H](Cc4ccccc4OCc4ccnn4CC(F)(F)F)C(=O)O)c23)ccc(OCCN2CCN(C)CC2)c1Cl [S63845]
effect of inducing MOMP (reduced TMRE fluorescence in CD19+ cells) [4]: less pronounced effect
proportion of cells without MOMP [4, 15]: 56.7%
% (MeanFL relative to negative control) ([4]; FCCP 5 μM): 56.7%
MeanFL (mean TMRE fluorescence for the live CD19+ cells) ([4]; FCCP 5 μM): 396
TMRE fluorescence / MOMP (FIG. 10) [5]: high TMRE fluorescence
TMRE fluorescence / MOMP (FIG. 10) [6]: high TMRE fluorescence

CN1CC[C@H](c2c(O)cc(O)c3c(=O)cc(-c4ccccc4Cl)oc23)[C@H](O)C1 [Flavopiridol]
mitochondrial membrane depolarization (JC-1) [14]: mitochondrial membrane depolarization was detected
